Assay results: patent publication US6159696A, “Isolated human BMP-4 promoter region” (priority 1996, dated 2000)
“Also recorded” adds a separate entry of the source. Blank lines part the entries; values can stand above or below the molecule they belong to.

What was measured:
[1] = system: BMP-4 promoter 1 region; assay: ER-mediated luciferase reporter gene modulation, BMP-4 promoter 1 region constructs, transient transfection of U-2 OS cells with pKCRE-ER; format: cell-based, human; conditions: for ER-mediated expression of the reporter gene under control of BMP-4 promoter region (in words): BMP-4 promoter region reporter plus ER expression vector; for Fold Induction: ratio of luciferase activity in presence and absence of compound, U-2 OS, human ER
Source text: (§1) Additional fragments of promoter region 1 were generated by progressive exonuclease III digestion (Erase-a-base Kit, Promega), blunt-ended with klenow and deoxynucleotide-triphosphates and subcloned into an endoR SmaI-digested pSLA4 luciferase reporter plasmid.
(§2) The human estrogen receptor (ER)-containing mammalian expression construct pKCRE-ER was constructed in the following way. […] The ER-cDNA was isolated as an endoR SphI/EcoRI fragment comprising nucleotide positions -30 to +1800.
ER-mediated reporter gene modulation by different estrogen analogs of individual promoter region constructs were assayed by transient transfection of osteosarcoma cells (U-2 OS). One day prior to transfection, U-2 OS cells were seeded at a density of 10^5 cells per well (6-well tissue culture plates; Nunc). In this case, the cells were seeded in fenolred-free medium containing 10% (v/v) charcoal-stripped Fetal Calf Serum (csFCS) instead of FCS. DNA was introduced using the lipofection method as described by the supplier (Gibco, BRL). Hereto, the DNA (1 μg receptor construct, 1 μg reporter construct and 250 ng transfection control construct in 250 μL Optimem, Gibco BRL; in different experiments the total amount of transfected DNA was kept constant using pKCRE) was mixed with an equal volume of Lipofectin Reagent (Gibco, BRL) and allowed to stand for 30 min at room temperature. To this was added 500 μL of Optimem (RT) and this mixture was added to the cells, after the latter have been washed with serum-free medium. After a 5 h incubation period at 37° C., the cells were washed with fenolred-free and serum-free medium and incubated overnight in fenolred-free and 10% csFCS medium containing the testcompounds at the concentrations indicated. Prior to the preparation of lysates, cells were washed with PBS (7.6 mM Na2 HPO4 /NAH2 PO4 pH 7.4 and 0.12 M NaCl). Cell extracts were prepared by the addition of 200 μL lysis buffer (0.1 M sodium phosphate buffer pH 7.8 and 0.2% Triton X-100) to the cells and allowed to stand for 5 min at room temperature. Luciferase measurements of cell extracts was performed as described by the supplier (Promega; Luciferase assay system E1501). Hereto, 30 μL of cell extract was added to a […] Optiplate (Packard) and combined with 50 μL of luciferase substrate. The plates were sealed with Topseal film (Packard) and measurements were performed in a Topcount (Packard).

[2] = system: estrogen response element (ERE)-containing promoter; assay: ER-mediated luciferase reporter gene modulation, estrogen response element promoter construct pERE3 TATA-Luc, transient transfection of U-2 OS cells with pKCRE-ER; format: cell-based, human; conditions: for expression of the reporter gene under the control of a promoter comprising an estrogen responsive element (ERE) (in words): ERE promoter reporter plus ER expression vector
Source text: The estrogen response element (ERE)-containing promoter construct was based on pBL-CAT6 (Boshart et al., Gene 110, 129, 1992). It was modified into a luciferase (Luc) reporter construct by exchanging the endoR XhoI/StyI fragment of pBL CAT6 (containing the chloramphenicol acetyl transferase coding information) by the endoR XhoI/StyI fragment of pXP2 (containing the luciferase coding information; Nordeen et al., Biotechniques 6, 454, 1988). A minimal promoter/TATA-element with the sequence 5'-GGGTATATAAT-3'(SEQ ID NO:8) was inserted in between the endoR XbaI and endoR BamHI sites resulting in plasmid pTATA-Luc. A triple estrogen response element (ERE) with the core sequence
was inserted in the endoR HindIII site resulting in plasmid pERE3 TATA-Luc.
The human estrogen receptor (ER)-containing mammalian expression construct pKCRE-ER was constructed in the following way. The human ER-cDNA was obtained from G. Greene (Ben May Laboratory for Cancer Research, University of Chicago); it encodes a glycine instead of valine at amino acid position 400 (G. Greene et al., Science 231, 1150, 1986 and Tora et al., EMBO. J, 8, 1981, 1989). The ER-cDNA was isolated as an endoR SphI/EcoRI fragment comprising nucleotide positions -30 to +1800. This fragment was blunted by T4-DNA polymerase and inserted in the blunted endoR BamHI site of the mammalian expression construct pKCR (O'Hara et al., Proc.Natl.Acad.Sci.USA, 78, 1527, 1981). The latter plasmid was modified in that the last exon region of the rabbit β-globin gene was removed by digestion with endoR EcoRI/BgIII, filling in, and religation (nucleotide position 1122-1196; Van Ooyen et al., Science 206, 337, 1979) and the replacement of pBR322 for pBR327 sequences.
(§3) ER-mediated reporter gene modulation by different estrogen analogs of individual promoter region constructs were assayed by transient transfection of osteosarcoma cells (U-2 OS). One day prior to transfection, U-2 OS cells were seeded at a density of 10^5 cells per well (6-well tissue culture plates; Nunc). In this case, the cells were seeded in fenolred-free medium containing 10% (v/v) charcoal-stripped Fetal Calf Serum (csFCS) instead of FCS. DNA was introduced using the lipofection method as described by the supplier (Gibco, BRL). Hereto, the DNA (1 μg receptor construct, 1 μg reporter construct and 250 ng transfection control construct in 250 μL Optimem, Gibco BRL; in different experiments the total amount of transfected DNA was kept constant using pKCRE) was mixed with an equal volume of Lipofectin Reagent (Gibco, BRL) and allowed to stand for 30 min at room temperature. To this was added 500 μL of Optimem (RT) and this mixture was added to the cells, after the latter have been washed with serum-free medium. […]

[3] = system: pSLA4 luciferase reporter plasmid; assay: ER-mediated luciferase reporter gene modulation, pSLA4 reporter without BMP-4 promoter region, transient transfection of U-2 OS cells with pKCRE-ER; format: cell-based, human
Source text: as §1, §2
as §3, with “temperature.” for “temperature. To this was added 500 μL of Optimem (RT) and this mixture was added to the cells, after the latter have been washed with serum-free medium.”

[4] = system: BMP-4 promoter 2 region; assay: ER-mediated luciferase reporter gene modulation, BMP-4 promoter 2 region constructs, transient transfection of U-2 OS cells with pKCRE-ER; format: cell-based; conditions: human ER (FIG. 8, FIG. 9)
Source text: as §1, §2
as §3, with “temperature.” for “temperature. To this was added 500 μL of Optimem (RT) and this mixture was added to the cells, after the latter have been washed with serum-free medium.”

[5] = promoter region not further specified

SMILES: CC/C(=C(\c1ccc(O)cc1)c1ccc(OCCN(C)C)cc1)c1ccccc1 [4OH-tamoxifen]
- ER-mediated expression of the reporter gene under control of BMP-4 promoter region (in words) [1, 5]: can also be achieved

- Fold Induction ([2]; u-2 os cells): 26 ± 7 fold
- Fold Induction ([3]; u-2 os cells): 0.7 ± 0.1 fold
SMILES: C[C@]12CC[C@@H]3c4ccc(O)cc4CC[C@H]3[C@@H]1CC[C@@H]2O [Estradiol, 17β-estradiol]
- ER-mediated expression of the reporter gene under control of BMP-4 promoter region (in words) ([1]; promoter region not further specified in the sentence, listed as 17-β-estradiol): did not show a significant transcriptional effect
- ER-mediated expression of the reporter gene under control of BMP-4 promoter region (in words) ([1]; promoter region not further specified in the sentence, listed as 17β-estradiol): did not induce the expression of the reporter gene

SMILES: CCCCN(C)C(=O)CCCCCCCCCC[C@@H]1Cc2cc(O)ccc2[C@H]2CC[C@]3(C)[C@@H](O)CC[C@H]3[C@H]12 [ICI 164384]
- ER-mediated expression of the reporter gene under control of BMP-4 promoter region (in words) [1, 5]: considerable expression of the reporter gene; also recorded: can also be achieved

- Fold Induction ([1]; construct pSLA4.IN+16): 3.8 ± 0.6 fold
- Fold Induction ([1]; construct pSLA4.IN+33): 3.1 ± 0.3 fold
- Fold Induction ([1]; construct pSLA4.IN-42): 1.1 ± 0.2 fold
- Fold Induction ([1]; construct pSLA4.INX): 3.4 ± 0.5 fold
- Fold Induction ([1]; construct pSLA4.1EX (-1166/+173)): 3.7 ± 0.7 fold
- Fold Induction ([1]; construct pSLA4.1PX (-697/+173)): 3.3 ± 0.5 fold
- Fold Induction ([2]; construct pERE3 TATA-Luc, ratio of luciferase activity in presence and absence of compound, U-2 OS, human ER): 0.7 ± 0.3 fold
- Fold Induction ([3]; construct pSLA4 (no BMP-4 promoter region), ratio of luciferase activity in presence and absence of compound, U-2 OS, human ER): 1.1 ± 0.2 fold
SMILES: O=C(c1ccc(OCCN2CCCCC2)cc1)c1c(-c2ccc(O)cc2)sc2cc(O)ccc12 [Raloxifene, raloxifene]
- ER-mediated expression of the reporter gene under control of BMP-4 promoter region (in words) [1, 5]: could be induced and/or stimulated; also recorded: induced expression of the reporter gene
- expression of the reporter gene under the control of a promoter comprising an estrogen responsive element (ERE) (in words) [2]: neither of these compounds were able to induce expression of the reporter gene
- ER-mediated effect on BMP-4 promoter 2 region reporter (in words) [4]: also apparent

SMILES: CC/C(=C(\c1ccccc1)c1ccc(OCCN(C)C)cc1)c1ccccc1 [tamoxifen]
- ER-mediated expression of the reporter gene under control of BMP-4 promoter region (in words) [1, 5]: could be induced and/or stimulated; also recorded: induced expression of the reporter gene
- expression of the reporter gene under the control of a promoter comprising an estrogen responsive element (ERE) (in words) [2]: neither of these compounds were able to induce expression of the reporter gene
